Measurements taken from BindingDB's records for patent US11780849 (Volastra Therapeutics, 2023).
pIC50: −log10 of the molar value.

Each compound was assayed against T1, Ectonucleotide pyrophosphatase/phosphodiesterase family member 1 (Homo sapiens, UniProt P22413) (assay: Inhibition of ENPP1 Hydrolysis of 2′,3′-cGAMP).
T1 sequence (P22413 whole entry): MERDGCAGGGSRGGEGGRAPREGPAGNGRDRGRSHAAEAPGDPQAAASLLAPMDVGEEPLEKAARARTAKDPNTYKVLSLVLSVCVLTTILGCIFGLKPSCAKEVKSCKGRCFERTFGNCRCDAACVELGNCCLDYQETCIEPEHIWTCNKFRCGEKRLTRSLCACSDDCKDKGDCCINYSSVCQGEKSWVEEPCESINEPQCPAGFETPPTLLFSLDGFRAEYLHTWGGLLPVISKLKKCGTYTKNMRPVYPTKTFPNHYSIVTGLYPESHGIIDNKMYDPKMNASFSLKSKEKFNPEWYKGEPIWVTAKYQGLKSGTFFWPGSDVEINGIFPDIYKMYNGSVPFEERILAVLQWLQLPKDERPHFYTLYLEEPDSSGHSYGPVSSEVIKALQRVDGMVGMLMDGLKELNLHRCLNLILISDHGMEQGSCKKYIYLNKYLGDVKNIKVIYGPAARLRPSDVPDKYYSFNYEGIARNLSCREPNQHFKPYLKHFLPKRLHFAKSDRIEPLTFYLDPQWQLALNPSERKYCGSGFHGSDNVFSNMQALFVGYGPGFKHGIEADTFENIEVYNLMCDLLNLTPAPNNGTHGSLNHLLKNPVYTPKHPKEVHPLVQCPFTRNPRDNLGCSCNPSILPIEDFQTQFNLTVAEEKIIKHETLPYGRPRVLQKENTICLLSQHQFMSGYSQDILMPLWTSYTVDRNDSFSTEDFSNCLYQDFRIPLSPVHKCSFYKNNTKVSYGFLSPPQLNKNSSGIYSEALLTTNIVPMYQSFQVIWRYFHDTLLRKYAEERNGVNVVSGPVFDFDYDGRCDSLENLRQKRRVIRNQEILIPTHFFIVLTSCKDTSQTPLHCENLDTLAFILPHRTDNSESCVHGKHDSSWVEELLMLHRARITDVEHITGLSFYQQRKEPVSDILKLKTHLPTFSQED
Description: Assay 1: Test compounds were plated in a 3 dilution scheme in a 384 well plate. […] AMP Detection solution (100 μL) was added to each well, the plate centrifuged and incubated for 60 min. Luminescence was measured with an Envision plate reader, and % Inhibition was calculated for each well as: (([max−min]−[test−min])/[max−min].

Compound	pIC50
COc1ccc2nccc(Oc3ccc(S(C)(=N)=O)cc3)c2n1 (configuration not stated) [US11780849, Compound 130]	< 6.00
COc1cccc2c(OCc3ccc(S(C)(=N)=O)cc3)ccnc12 (configuration not stated) [US11780849, Compound 134]	< 6.00
COc1cc2nncc(N3CCC(CCS(C)(=N)=O)CC3)c2cc1OC (configuration not stated) [US11780849, Compound 151]	> 8.00
COc1cc2nccc(-c3ccc4c(c3)CN(S(C)(=N)=O)CC4)c2cc1OC (configuration not stated) [US11780849, Compound 161]	> 8.00

Next, values leading:

pIC50	Compound
> 8.00	COc1ccc2c(OCc3ccc(S(C)(=N)=O)cc3F)ccnc2c1 (configuration not stated) [US11780849, Compound 135]
> 8.00	COc1cc2nccc(N3CCC(CCS(C)(=N)=O)CC3)c2cc1Cl (configuration not stated) [US11780849, Compound 141]
> 8.00	COc1cc2nccc(N3CCC(CCS(C)(=N)=O)CC3)c2cc1F (configuration not stated) [US11780849, Compound 150]
